Experimental data as given in US11534377B2, “Hair growth agent” (KOBAYASHI PHARMACEUTICAL CO., LTD., priority 2016, dated 2022).

Assays:
[1] = test system: transplanted mice (hair follicles of haired mice transplanted into the back of nude mice); assay: Hair shaft growth in nude mice transplanted with hair follicles of haired mice (Example 1); assay type: in vivo; settings: for Hair shaft growth rate: topical 4 times per day
Method: Hair follicles (surgically prepared) of haired mice were transplanted into the back of nude mice (from Sankyo Labo Service Corporation, Inc.) to produce transplanted mice manipulated such that each hair can be distinguished and a plurality of hair cycles can be observed. First, a 50% ethanol aqueous solution (12.5 μl, not containing the agent) was applied to the transplanted mice 4 times per day during new hair growth in the first hair cycle to obtain reference data of a hair cycle. After the hair had shed following the end of the first hair cycle, a 50% ethanol aqueous solution (12.5 μl) containing a predetermined amount of the agent was applied to the mice 4 times per day to obtain data on effects of the agent. After the hair had shed following the end of the second hair cycle, a 50% ethanol aqueous solution (12.5 μl) containing the agent in the same amount as that in the second hair cycle was applied to the mice in a similar manner to the second hair cycle to obtain reproducibility data on effects of the agent. As the agent, D-chiro-inositol (from Wako Pure Chemical Industries Ltd.) and its stereoisomers as chiro-inositol, L-chiro-inositol (from Tokyo Chemical Industry Co., Ltd.), myo-inositol (from Wako Pure Chemical Industries Ltd.), allo-inositol (cis-1,2,3,4-trans-5,6-cyclohexaneheaxol) (from Tokyo Chemical Industry Co., Ltd.), epi-inositol (cis-1,2,3,4,5-trans-6-cyclohexanehexaol) (from Tokyo Chemical Industry Co., Ltd.), muco-inositol (cis-1,2,4,5-trans-3,6-cyclohexanehexaol) (from Tokyo Chemical Industry Co., Ltd.), and scyllo-inositol (cis-1,3,5-trans-2,4,6-cyclohexanehexaol) (from Tokyo Chemical Industry Co., Ltd.) were used. For each agent solution, the lengths of hair shafts were measured every 2 to 3 days, an average length of hair shafts that changed day by day was plotted as one dot at each time point in a graph, and a similar plotting was repeated for 3 to 4 mice. The results were shown in Tables 1 to 14 and FIGS. 1 to 14.

[2] = test system: C57BL/6N mice; assay: Hair shaft diameter of regrown body hair after hair pull-out (Example 2); assay type: in vivo; settings: 1 wt % in 50% ethanol, once/day 100 μl, day 21 after the application; FIG. 15, P<0.01
From the text: In C57BL6/N mice, it is known that when body hair of the back is pulled out, hair cycles in the pulled-out region are forced to shift to the […], and as a result, the hair cycles in the pulled-out region are synchronized. Therefore, only hair in the anagen phase becomes observable by decreasing variations in hair cycles. Approximately 7 days after hair is pulled out, as a sign of the anagen phase, skin color changing into gray is observed as melanocytes in hair follicles start synthesizing melanin, in addition to growth of pigmented hair. Further, approximately 10 days after hair is pulled out, new hair growth is observed in the pulled-out region. […] Accordingly, hair growth activity can be evaluated from a viewpoint of an increase in hair shaft diameter by measuring the hair shaft diameter of body hair grown in the pulled-out region approximately 21 days after hair is pulled out. […]
The application was performed for two groups (test solution-applied group and negative control group (50% ethanol-applied group)), where each group consisted of six mice. […] About 20 hair shafts were collected from each mouse, and the hair shaft diameter was measured for 10 hair shafts randomly selected from 120 hair shafts in total collected from 6 mice of each group. […]

[3] = 1 wt %, second hair cycle vs first hair cycle (vehicle)
[4] = 1 wt %, third hair cycle vs first hair cycle (vehicle)
[5] = 5 wt %, second hair cycle vs first hair cycle (vehicle)
[6] = 5 wt %, third hair cycle vs first hair cycle (vehicle)
[7] = 10 wt %, second hair cycle vs first hair cycle (vehicle)
[8] = 10 wt %, third hair cycle vs first hair cycle (vehicle)

For `OC1C(O)C(O)C(O)C(O)C1O` [D-chiro-inositol], the “Hair shaft growth rate and hair shaft maximum length, difference from the reference data” value ([1]; 0.01 wt %) was “marginally significant differences”, the “Hair shaft growth rate” value ([1]; 0.01 wt % in 50% ethanol, second hair cycle) was 0.30 ± 0.03 mm/day and the “Hair shaft growth rate” value ([1]; 0.01 wt % in 50% ethanol, third hair cycle (reproducibility)) was 0.40 ± 0.06 mm/day. For the same compound, the “Hair shaft maximum length” value ([1]; 0.01 wt %, second hair cycle) was 4.8 ± 0.4 mm, the “Hair shaft maximum length” value ([1]; 0.01 wt %, third hair cycle (reproducibility)) was 4.7 ± 0.3 mm and the “Hair shaft growth rate” value ([1]; 0.1 wt % in 50% ethanol, second hair cycle) was 0.30 ± 0.03 mm/day. For the same compound, the “Hair shaft growth rate” value ([1]; 0.1 wt % in 50% ethanol, third hair cycle (reproducibility)) was 0.40 ± 0.06 mm/day, the Hair growth activity ([1]; 0.1 wt %, growth rate not significantly different, maximum length increased significantly in third hair cycle) was “hair growth activity was shown” and the “Hair shaft maximum length” value ([1]; 0.1 wt %, second hair cycle) was 4.7 ± 0.4 mm. For the same compound, the “Hair shaft maximum length relative to reference data” value ([1]; 0.1 wt %, second hair cycle vs first hair cycle (vehicle)) was 101%, the “Hair shaft maximum length” value ([1]; 0.1 wt %, third hair cycle (reproducibility)) was 4.8 ± 0.4 mm and the “Hair shaft maximum length relative to reference data” value ([1]; 0.1 wt %, third hair cycle vs first hair cycle (vehicle)) was 105%. For the same compound, the “Hair shaft growth rate” value ([1]; 1 wt % in 50% ethanol, second hair cycle) was 0.47 ± 0.01 mm/day, the “Hair shaft growth rate” value ([1]; 1 wt % in 50% ethanol, third hair cycle (reproducibility)) was 0.48 ± 0.04 mm/day and the “Hair shaft maximum length” value ([1]; 1 wt %, second hair cycle) was 5.7 ± 0.4 mm. For the same compound, the “Hair shaft growth rate relative to reference data” value [1, 3] was 121%, the “Hair shaft maximum length relative to reference data” value [1, 3] was 110% and the “Hair shaft maximum length” value ([1]; 1 wt %, third hair cycle (reproducibility)) was 6.0 ± 0.4 mm. For the same compound, the “Hair shaft growth rate relative to reference data” value [1, 4] was 123%, the “Hair shaft maximum length relative to reference data” value [1, 4] was 116% and the “Hair shaft growth rate” value ([1]; 5 wt % in 50% ethanol, second hair cycle) was 0.46 ± 0.04 mm/day. For the same compound, the “Hair shaft growth rate” value ([1]; 5 wt % in 50% ethanol, third hair cycle (reproducibility)) was 0.49 ± 0.07 mm/day, the “Hair shaft maximum length” value ([1]; 5 wt %, second hair cycle) was 5.1 ± 0.3 mm and the “Hair shaft growth rate relative to reference data” value [1, 5] was 128%. For the same compound, the “Hair shaft maximum length relative to reference data” value [1, 5] was 116%, the “Hair shaft maximum length” value ([1]; 5 wt %, third hair cycle (reproducibility)) was 5.1 ± 0.4 mm and the “Hair shaft growth rate relative to reference data” value [1, 6] was 136%. The “Hair shaft maximum length relative to reference data” value [1, 6] was 116%, the “Hair shaft growth rate” value ([1]; 10 wt % in 50% ethanol, second hair cycle) was 0.46 ± 0.06 mm/day and the “Hair shaft growth rate” value ([1]; 10 wt % in 50% ethanol, third hair cycle (reproducibility)) was 0.63 ± 0.05 mm/day. For the same compound, the “Hair shaft growth rate and hair shaft maximum length relative to the reference data” value ([1]; 10 wt %, 5 wt %, or 1 wt % as the agent) was “increased significantly”, the “Hair shaft maximum length” value ([1]; 10 wt %, second hair cycle) was 5.6 ± 0.5 mm and the “Hair shaft growth rate relative to reference data” value [1, 7] was 154%. For the same compound, the “Hair shaft maximum length relative to reference data” value [1, 7] was 142%, the “Hair shaft maximum length” value ([1]; 10 wt %, third hair cycle (reproducibility)) was 5.9 ± 0.5 mm and the “Hair shaft growth rate relative to reference data” value [1, 8] was 210%. For the same compound, the “Hair shaft maximum length relative to reference data” value [1, 8] was 149% and the “Hair shaft diameter vs negative control group” value [2] was “significantly larger”.
